# Experimental data taken from patent US12240862B2, “Inhibitors of peptidylarginine deiminases” (Gilead Sciences, Inc., priority 2020, dated 2025).
# Target: T1, human PAD4 (Homo sapiens, UniProt Q9UM07)
# T1 construct: human PAD4 (NM_012387), A2P663, was PCR amplified; His-SUMO (N, cleaved yes); made in house; host or cells: E. coli BL21(DE3)
# Assay: In vitro PAD4 BAEE biochemical assay
# Conditions: human PAD4, BAEE substrate; 5 nM PAD4, 2 mM calcium chloride, 3 mM BAEE; geometric mean of multiple experiments
# Method: The PCR product was ligated into linearized pET-SUMO vector (Invitrogen, Carlsbad, CA), which is part of the Champion™ pET SUMO Protein Expression System. After sequence verification for the correct orientation, the pET-SUMO-hPAD4 expression plasmid was transformed into BL21(DE3) cells.
# E. Coli BL21(DE3) cells were inoculated in LB medium with kanamycin at 37° C. until A600 nm reached about 0.5. Protein expression was induced by addition of 0.5 mM IPTG (final) and continued overnight at 16° C. at 220 rpm.
# Cells were harvested by centrifugation at 5000 rpm for 10 minutes at 4° C. The pellet was resuspended in 300 ml lysis buffer (20 mM Tris-HCl, pH 8.0, 1 mM EDTA, 500 mM NaCl, 1 mM (tris(2-carboxyethyl)phosphine) (TCEP), 10% glycerol, and 1% Triton X100 and EDTA free protease inhibitor) and lysed by 3× passage through a microfluidizer (Microfluidics, Newton, MA) at 18,000 psi. The cell lysate was clarified by centrifugation at 30,000 rpm for 60 minutes at 4° C. […] Bound protein was eluted with a 0-100% linear gradient of 100 mL Ni-B buffer (Ni A buffer+0.5 M Imidazole).
# The protein was then reloaded onto a Ni—HP column for a reverse purification step and recovered in flow through fraction. The protein with His-Sumo tag removed was then polished using a 16/60 Superdex-200 gel filtration column with gel filtration buffer (20 mM Tris pH 8.0, NaCl 400 mM and 1 mM TCEP). The fractions containing the protein were pulled and frozen at −80° C.
# The enzymatic activity of human PAD4 was monitored in a biochemical assay in the presence or absence of compounds using the small peptidyl arginine mimic BAEE (Na-Benzoyl-L-arginine ethyl ester hydrochloride) as substrate. PAD4 activity led to deamination of BAEE and release of ammonia. Levels of ammonia were monitored by using an amine coupling reaction and were indicative of PAD4 enzymatic activity.
# One hundred nanoliters of test compounds dissolved in DMSO at various concentrations were dispensed into a 384-well black OptiPlate using a Labcyte Echo instrument. Ten microliters of a solution of recombinant PAD4 and calcium chloride diluted in PAD4 assay buffer (50 mM MOPS [3-(N-morpholino) propanesulfonic acid], pH 7.6; 50 mM sodium chloride; 0.05% Tween-20; 2 mM dithiothreitol) was added to the compound-containing plate and was incubated for 30 minutes at 25° C. Ten microliters of a solution of BAEE (Sigma-Aldrich #B4500) diluted in PAD4 assay buffer was then added to start the reaction. Final concentrations were 5 nM PAD4, 2 mM calcium chloride, and 3 mM BAEE. The reaction mixture was incubated at 25° C. for 2 hours and was stopped with the addition of 10 microliters of a solution of 75 mM EDTA (Ethylenediaminetetraacetic acid) in PAD4 assay buffer. Thirty microliters of detection solution (5 mM o-phthalaldehyde, 50 mM MOPS [3-(N-morpholino) propanesulfonic acid], pH 7.6; 50 mM sodium chloride; 0.05% Tween-20; 5 mM dithiothreitol) was then added and the reaction was incubated for 1 hour at 25° C.
# T1 sequence (Q9UM07 2-663): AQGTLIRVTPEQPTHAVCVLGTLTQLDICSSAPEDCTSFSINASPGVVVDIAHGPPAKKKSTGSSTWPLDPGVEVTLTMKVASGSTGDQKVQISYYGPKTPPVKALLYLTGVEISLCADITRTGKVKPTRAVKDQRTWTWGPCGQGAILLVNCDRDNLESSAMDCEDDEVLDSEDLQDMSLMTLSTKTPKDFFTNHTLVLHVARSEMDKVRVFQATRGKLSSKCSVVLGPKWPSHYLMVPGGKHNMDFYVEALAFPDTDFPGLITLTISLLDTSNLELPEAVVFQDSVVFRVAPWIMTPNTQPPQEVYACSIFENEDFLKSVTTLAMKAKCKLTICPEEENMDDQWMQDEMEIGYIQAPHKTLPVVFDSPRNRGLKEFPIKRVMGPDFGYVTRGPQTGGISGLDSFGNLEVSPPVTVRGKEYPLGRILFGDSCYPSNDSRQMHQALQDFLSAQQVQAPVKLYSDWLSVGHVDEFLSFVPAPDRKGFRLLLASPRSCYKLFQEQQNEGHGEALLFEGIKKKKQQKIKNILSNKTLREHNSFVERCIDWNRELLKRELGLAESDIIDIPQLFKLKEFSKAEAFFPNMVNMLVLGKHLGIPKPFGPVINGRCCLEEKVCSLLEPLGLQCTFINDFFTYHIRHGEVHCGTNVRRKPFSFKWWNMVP
row,IC50 [nM],Molecule
1,2130,"CCC1C(N)C2CCC1N2C(=O)c1cc(OC)n2c(C)c(-c3cc4ccc(N(C(F)F)S(C)(=O)=O)nc4n3CC3CC3)nc2c1 (single isomer, unassigned) [Example 346]"
2,10100,"CCC1C(N)C2CCC1N2C(=O)c1cc(OC)n2c(C)c(-c3cc4ccc(N(C(F)F)S(C)(=O)=O)nc4n3CC3CC3)nc2c1 (single isomer, unassigned) [Example 347]"
3,13600,"COc1cc(C(=O)N2C[C@H]3CC[C@@H]2[C@H](N)C3)cc2nc(-c3cc4ccc(N(C(F)F)S(C)(=O)=O)nc4n3CC3CC3)c(C)n12 (single isomer, unassigned) [Example 369, ~{N}-[2-[7-[(1~{S},4~{R}, 6~{R})-6-amino-2-azabicyclo[2.2.2]octane-2-carbonyl]-5-methoxy-3-methylimidazo[1,2-a]pyridin-2-yl]-1-(cyclopropylmethyl)pyrrolo [2,3-b]pyridin-6-yl]-~{N}-(difluoromethyl) methanesulfonamide]"
4,7180,"COc1cc(C(=O)N2CC[C@@H]3CCNC[C@@H]32)cc2nc(-c3cc4ccc(N(C(F)F)S(C)(=O)=O)nc4n3CC3CC3)c(C)n12 (single isomer, unassigned) [Example 417]"
5,85.7,"COc1cc(C(=O)N2[C@H]3CC[C@@H]2[C@H](N)C3)cc2nc(-c3cc4ccc([C@@H](C)NC(=O)c5cn(C)nn5)nc4n3CC3CC3)c(C)n12 [Example 1, ~{N}-[(1~{R})-1-[2-[7-[(1~{R},2~{R},4~{S})-2-amino-7-azabicyclo[2.2.1]heptane-7-carbonyl]-5-methoxy-3-methylimidazo [1,2-a]pyridin-2-yl]-1-(cyclopropylmethyl)pyrrolo [2,3-b]pyridin-6-yl]ethyl]-1-methyltriazole-4-carboxamide]"
6,11000,"COc1cc(C(=O)N2C[C@@H]3CC[C@H]2CN3)cc2nc(-c3cc4ccc([C@@H](C)NC(=O)C56CC(F)(C5)C6)nc4n3CC3CC3)c(C)n12 [Example 3, ~{N}-[(1~{R})-1-[1-(cyclopropylmethyl)-2-[7-[(1~{S},4~{S})-2,5-diazabicyclo[2.2.2]octane-2-carbonyl]-5-methoxy-3-methylimidazo[1,2-a]pyridin-2-yl]pyrrolo [2,3-b]pyridin-6-yl]ethyl]-3-fluorobicyclo [1.1.1] pentane-1-carboxamide]"
7,23400,"COc1cc(C(=O)N2CCC3(CCCCN3)C2)cc2nc(-c3cc4ccc([C@@H](C)NC(=O)C56CC(F)(C5)C6)nc4n3CC3CC3)c(C)n12 (stereo partly shown) [Example 4, ~{N}-[(1~{R})-1-[1-(cyclopropylmethyl)-2-[7-(2,6-diazaspiro [4.5]decane-2-carbonyl)-5-methoxy-3-methylimidazo[1,2-a]pyridin-2-yl]pyrrolo[2,3-b]pyridin-6-yl]ethyl]-3-fluorobicyclo[1.1.1] pentane-1-carboxamide]"
8,19000,"COc1cc(C(=O)N2CCC3(CCCNC3)C2)cc2nc(-c3cc4ccc([C@@H](C)NC(=O)C56CC(F)(C5)C6)nc4n3CC3CC3)c(C)n12 (stereo partly shown) [Example 5, ~{N}-[(1~{R})-1-[1-(cyclopropylmethyl)-2-[7-(2,9-diazaspiro[4.5]decane-2-carbonyl)-5-methoxy-3-methylimidazo[1,2-a]pyridin-2-yl]pyrrolo [2,3-b]pyridin-6-yl]ethyl]-3-fluorobicyclo[1.1.1] pentane-1-carboxamide]"
9,127,"COc1cc(C(=O)N2[C@H]3CC[C@@H]2[C@H](N)C3)cc2nc(-c3cc4ccc([C@@H](C)NC(=O)C(C)C(F)(F)F)nc4n3CC3CC3)c(C)n12 (stereo partly shown) [Example 7, ~{N}-[(1~{R})-1-[2-[7-[(1~{R},2~{R},4~{S})-2-amino-7-azabicyclo [2.2.1]heptane-7-carbonyl]-5-methoxy-3-methylimidazo [1,2-a]pyridin-2-yl]-1-(cyclopropylmethyl)pyrrolo[2,3-b]pyridin-6-yl]ethyl]-3,3,3-trifluoro-2-methylpropanamide]"
10,144,"COc1cc(C(=O)N2[C@H]3CC[C@@H]2[C@H](N)C3)cc2nc(-c3cc4ccc([C@@H](C)NC(=O)[C@H]5[C@@H]6CC(F)(F)C[C@@H]65)nc4n3CC3CC3)c(C)n12 [Example 8, (1~{R},5~{S})-~{N}-[(1~{R})-1-[2-[7-[(1~{R}, 2~{R},4~{S})-2-amino-7-azabicyclo[2.2.1]heptane-7-carbonyl]-5-methoxy-3-methylimidazo [1,2-a]pyridin-2-yl]-1-(cyclopropylmethyl)pyrrolo[2,3-b]pyridin-6-yl]ethyl]-3,3-difluorobicyclo[3.1.0] hexane-6-carboxamide]"
11,28,"COc1cc(C(=O)N2CCC[C@@H](N)C2)cc2nc(-c3cc4ccc([C@@H](C)NC(=O)[C@H]5[C@@H]6CC(F)(F)C[C@@H]65)nc4n3CC3CC3)c(C)n12 [Example 9, (1~{R},5~{S})-~{N}-[(1~{R})-1-[2-[7-[(3~{R})-3-aminopiperidine-1-carbonyl]-5-methoxy-3-methylimidazo[1,2-a]pyridin-2-yl]-1-(cyclopropylmethyl)pyrrolo[2,3-b]pyridin-6-yl]ethyl]-3,3-difluorobicyclo[3.1.0] hexane-6-carboxamide]"
12,259,"COc1cc(C(=O)N2[C@H]3CC[C@@H]2[C@H](N)C3)cc2nc(-c3cc4ccc([C@@H](C)NC(=O)c5ccccc5C(F)(F)F)nc4n3CC3CC3)c(C)n12 [Example 10, ~{N}-[(1~{R})-1-[2-[7-[(1~{R},2~{R},4~{S})-2-amino-7-azabicyclo [2.2.1]heptane-7-carbonyl]-5-methoxy-3-methylimidazo [1,2-a]pyridin-2-yl]-1-(cyclopropylmethyl)pyrrolo[2,3-b]pyridin-6-yl]ethyl]-2-(trifluoromethyl) benzamide]"
13,253,"COc1cc(C(=O)N2[C@H]3CC[C@@H]2[C@H](N)C3)cc2nc(-c3cc4ccc([C@@H](C)NC(=O)c5ccccc5C(F)F)nc4n3CC3CC3)c(C)n12 [Example 11, ~{N}-[(1~{R})-1-[2-[7-[(1~{R},2~{R},4~{S})-2-amino-7-azabicyclo [2.2.1]heptane-7-carbonyl]-5-methoxy-3-methylimidazo [1,2-a]pyridin-2-yl]-1-(cyclopropylmethyl)pyrrolo[2,3-b]pyridin-6-yl]ethyl]-2-(difluoromethyl) benzamide]"
14,29100,"CCC1CC[C@@H]2CCN(C(=O)c3cc(OC)n4c(C)c(-c5cc6ccc([C@@H](C)NC(=O)C78CC(F)(C7)C8)nc6n5CC5CC5)nc4c3)C[C@@H]2N1 (stereo partly shown) [Example 12, ~{N}-[(1~{R})-1-[2-[7-[(4~{a}~{R}, 8~{a}~{R})-2-ethyl-2,3,4,4~{a}, 5,6,8,8~{a}-octahydro-1~{H}-1,7-naphthyridine-7-carbonyl]-5-methoxy-3-methylimidazo[1,2-a]pyridin-2-yl]-1-(cyclopropylmethyl)pyrrolo[2,3-b]pyridin-6-yl]ethyl]-3-fluorobicyclo[1.1.1] pentane-1-carboxamide]"
15,1780,"COc1cc(C(=O)N2[C@H]3CC[C@@H]2[C@@H]2NCCO[C@@H]2C3)cc2nc(-c3cc4ccc([C@@H](C)NC(=O)C56CC(F)(C5)C6)nc4n3CC3CC3)c(C)n12 [Example 13, ~{N}-[(1~{R})-1-[1-(cyclopropylmethyl)-2-[5-methoxy-3-methyl-7-[(1~{R},2~{S},7~{R}, 9~{S})-6-oxa-3,12-diazatricyclo [7.2.1.0^{2,7}]dodecane-12-carbonyl]imidazo[1,2-a]pyridin-2-yl]pyrrolo[2,3-b]pyridin-6-yl]ethyl]-3-fluorobicyclo[1.1.1] pentane-1-carboxamide]"

row,Molecule,IC50 [nM]
1,"3-[(1~{R})-1-[2-[7- [(1~{R},2~{R},4~{S})-2- amino-7- azabicyclo[2.2.1]heptane-7- carbonyl]-3-cyclopropyl-5- methoxyimidazo [1,2-a]pyridin-2-yl]-1- (cyclopropylmethyl)pyrrolo [2,3-b]pyridin-6-yl]ethyl]-1- [(6-methoxypyridin-2- yl)methyl]-1-methylurea [Example 219]",124
